{
  "source": "patent US4687773A",
  "about": "“(+)-N-N-propylnorapomorphine and selective limbic activity” (priority 1985, dated 1987)",
  "assay": "Catalepsy (latency to resume normal posture)",
  "format": "in vivo, rat",
  "details": "s.c., maximum 18.0",
  "description": "Catalepsy: This measure of muscle rigidity is assessed by having animals in abnormal body positions and timing their duration of maintaining these. This is done by placing rats on a wire grid placed at a 45° angle to the benchtop, or by placing their forelimbs on a raised horizontal metal bar, and timing the latency to resume a normal posture by stopwatch.\nAll data presented in the Tables below are expressed as the mean results from 4-6 rats per condition, ±S.E.M. Stereotypy is expressed in rating units (maximum=3.0) and activity is expressed in arbitrary units of percent change, derived from EAM counts per unit time, relative to activity in control (saline) animals set at zero.",
  "note": "Structures can show the parent of a compound that is named as a salt.",
  "data": [
    {"smiles": "CCCN1CCc2cccc3c2[C@@H]1Cc1ccc(O)c(O)c1-3", "note": "[(+)NPA, (S)-N-n-Propylnorapomorphine Hydrochloride]", "values": [
      {"measurement": "Catalepsy score", "setting": "0.1 mg/kg", "value": "0.6 ± 0.1"},
      {"measurement": "Catalepsy score", "setting": "0.3 mg/kg", "value": "0.4 ± 0.1"},
      {"measurement": "Catalepsy score", "setting": "3.0 mg/kg", "value": "0.6 ± 0.1"},
      {"measurement": "Catalepsy score", "setting": "5.0 mg/kg", "value": "0.6 ± 0.1"}
    ]}
  ]
}
